Assay results: PubChem BioAssay (NCI)
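Values below derive from 48-hour exposures of cells grown in 96-well plates, with endpoints linearly interpolated between the two concentrations bracketing the appropriate inhibition level. At the TGI there is no net growth.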

Tests used:
Test in all cases: NCI tumour cell line growth inhibition, 48 h
[1] = test system: M14 melanoma
[2] = test system: K-562 leukemia
[3] = test system: U251 CNS
[4] = test system: KM12 colon
[5] = test system: SF-268 CNS
[6] = test system: HOP-62 NSCLC
[7] = test system: SF-539 CNS
[8] = test system: T-47D breast
[9] = test system: OVCAR-8 ovarian
[10] = test system: HOP-92 NSCLC
[11] = test system: COLO 205 colon
[12] = test system: HCT-15 colon
[13] = test system: UACC-257 melanoma
[14] = test system: SK-OV-3 ovarian
[15] = test system: SR leukemia
[16] = test system: RPMI-8226 leukemia
[17] = test system: IGROV1 ovarian
[18] = test system: HCT-116 colon
[19] = test system: UO-31 renal
[20] = test system: A549 NSCLC
[21] = test system: MDA-N
[22] = test system: HS 578T breast
[23] = test system: TK-10 renal
[24] = test system: CAKI-1 renal
[25] = test system: OVCAR-3 ovarian
[26] = test system: NCI-H226 lung
[27] = test system: MALME-3M melanoma
[28] = test system: SNB-19 CNS
[29] = test system: NCI-H23 lung
[30] = test system: ACHN renal
[31] = test system: SK-MEL-28 melanoma
[32] = test system: RXF 393 renal
[33] = test system: OVCAR-4 ovarian
[34] = test system: DU-145 prostate
[35] = test system: SW-620 colon
[36] = test system: MDA-MB-435
[37] = test system: CCRF-CEM leukemia
[38] = test system: MOLT-4 leukemia
[39] = test system: LOX IMVI melanoma
[40] = test system: UACC-62 melanoma
[41] = test system: MCF7 breast
[42] = test system: SN12C renal
[43] = test system: HL-60(TB) leukemia
[44] = test system: NCI/ADR-RES ovarian
[45] = test system: SNB-75 CNS
[46] = test system: SK-MEL-2 melanoma
[47] = test system: MDA-MB-231 breast
[48] = test system: SF-295 CNS
[49] = test system: 786-0 renal
[50] = test system: SK-MEL-5 melanoma
[51] = test system: NCI-H522 lung
[52] = test system: HCC-2998 colon
[53] = test system: A498 renal
[54] = test system: PC-3 prostate
[55] = test system: NCI-H460 lung
[56] = test system: OVCAR-5 ovarian
[57] = test system: EKVX NSCLC
[58] = test system: HT29 colon

## CCOC(=O)C1=C(N)Oc2ccc(Br)cc2C1C(C#N)C(=O)OCC (configuration not stated)
[1]
  TGI: > 100 µM
[2]
  TGI: > 100 µM
[3]
  TGI: 33.8 µM
[4]
  TGI: 62.7 µM
[5]
  TGI: 38.5 µM
[6]
  TGI: > 100 µM
[7]
  TGI: 40.3 µM
[8]
  TGI: 53.1 µM
[9]
  TGI: 45.1 µM
[10]
  TGI: 37 µM
[11]
  TGI: 42.3 µM
[12]
  TGI: 40.9 µM
[13]
  TGI: 61.7 µM
[14]
  TGI: 47.1 µM
[15]
  TGI: > 100 µM
[16]
  TGI: 41.6 µM
[17]
  TGI: 36.5 µM
[18]
  TGI: 42.2 µM
[19]
  TGI: 35.8 µM
[20]
  TGI: 70.5 µM
[21]
  TGI: 54.9 µM
[22]
  TGI: 61 µM
[23]
  TGI: 36.2 µM
[24]
  TGI: > 100 µM
[25]
  TGI: 39.7 µM
[26]
  TGI: 35.3 µM
[27]
  TGI: 41 µM
[28]
  TGI: 68.1 µM
[29]
  TGI: 47.3 µM
[30]
  TGI: 33.6 µM
[31]
  TGI: 32.4 µM
[32]
  TGI: 22 µM
[33]
  TGI: 44.8 µM
[34]
  TGI: > 100 µM
[35]
  TGI: 43.2 µM
[36]
  TGI: 37.9 µM
[37]
  TGI: 44.5 µM
[38]
  TGI: 90.9 µM
[39]
  TGI: 33.1 µM
[40]
  TGI: 83.5 µM
[41]
  TGI: 89.4 µM
[42]
  TGI: > 100 µM
[43]
  TGI: > 100 µM
[44]
  TGI: 41 µM
[45]
  TGI: > 100 µM
[46]
  TGI: 39.1 µM
[47]
  TGI: 55.9 µM
[48]
  TGI: > 100 µM
[49]
  TGI: 70.1 µM
[50]
  TGI: 42.6 µM
[51]
  TGI: 34.6 µM
[52]
  TGI: 32.7 µM
[53]
  TGI: > 100 µM
[54]
  TGI: 43.4 µM
[55]
  TGI: > 100 µM
[56]
  TGI: 66.3 µM
[57]
  TGI: > 100 µM

## C[C@@H]1CCC2[C@@H](C)[C@@H](OCCO[C@H]3OC4O[C@@]5(C)CCC6[C@H](C)CCC([C@H]3C)[C@@]46OO5)OC3O[C@@]4(C)CCC1[C@]32OO4 (some centres not stated)
[1]
  TGI: > 100 µM
[3]
  TGI: > 100 µM
[4]
  TGI: > 100 µM
[5]
  TGI: > 100 µM
[6]
  TGI: > 100 µM
[7]
  TGI: > 100 µM
[8]
  TGI: > 100 µM
[9]
  TGI: > 78.2 µM
[10]
  TGI: > 57.7 µM
[11]
  TGI: 0.304 µM
[12]
  TGI: > 100 µM
[13]
  TGI: > 100 µM
[14]
  TGI: > 100 µM
[15]
  TGI: > 100 µM
[16]
  TGI: > 100 µM
[17]
  TGI: > 100 µM
[18]
  TGI: > 100 µM
[58]
  TGI: > 100 µM
[19]
  TGI: > 100 µM
[20]
  TGI: > 100 µM
[21]
  TGI: > 100 µM
[22]
  TGI: > 100 µM
[23]
  TGI: > 100 µM
[24]
  TGI: 2.07 µM
[26]
  TGI: > 100 µM
[27]
  TGI: > 100 µM
[28]
  TGI: > 100 µM
[29]
  TGI: 68.9 µM
[30]
  TGI: > 100 µM
[31]
  TGI: > 100 µM
[32]
  TGI: > 100 µM
[33]
  TGI: > 100 µM
[35]
  TGI: > 100 µM
[36]
  TGI: 98.9 µM
[37]
  TGI: > 100 µM
[38]
  TGI: > 100 µM
[39]
  TGI: > 40.5 µM
[40]
  TGI: > 100 µM
[41]
  TGI: > 42.3 µM
[42]
  TGI: > 100 µM
[43]
  TGI: > 100 µM
[44]
  TGI: 3.14 µM
[45]
  TGI: > 100 µM
[46]
  TGI: 6.06 µM
[47]
  TGI: > 66.2 µM
[48]
  TGI: > 100 µM
[49]
  TGI: > 100 µM
[50]
  TGI: > 39.8 µM
[51]
  TGI: > 100 µM
[52]
  TGI: > 100 µM
[53]
  TGI: > 77.1 µM
[54]
  TGI: > 95.8 µM
[55]
  TGI: > 100 µM
[56]
  TGI: > 100 µM
[57]
  TGI: > 100 µM
